{"source": "PubChem BioAssay (NCI)", "assay_in_all_cases": "growth of human tumour cells (NCI), 48 h", "key": {"[1]": {"system": "PC-3 prostate"}, "[2]": {"system": "NCI/ADR-RES ovarian"}, "[3]": {"system": "A549 NSCLC"}, "[4]": {"system": "ACHN renal"}, "[5]": {"system": "MALME-3M melanoma"}, "[6]": {"system": "OVCAR-4 ovarian"}, "[7]": {"system": "HCT-15 colon"}, "[8]": {"system": "M14 melanoma"}, "[9]": {"system": "OVCAR-5 ovarian"}, "[10]": {"system": "A498 renal"}, "[11]": {"system": "MDA-MB-435"}, "[12]": {"system": "RPMI-8226 leukemia"}, "[13]": {"system": "UACC-257 melanoma"}, "[14]": {"system": "NCI-H23 lung"}, "[15]": {"system": "T-47D breast"}, "[16]": {"system": "OVCAR-3 ovarian"}, "[17]": {"system": "HOP-62 NSCLC"}, "[18]": {"system": "MCF7 breast"}, "[19]": {"system": "NCI-H522 lung"}, "[20]": {"system": "SK-OV-3 ovarian"}}, "note": "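48-hour exposure; five concentrations; linearly interpolated endpoints. TGI: total growth inhibition.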", "data": [{"smiles": "O=[N+]([O-])C(=C(N1CCCCC1)N1CCCCC1)/C(Cl)=C(\\Cl)[N+](=O)[O-]", "values": [{"measurement": "TGI", "setting": "[1]", "value": 30, "unit": "µM"}, {"measurement": "TGI", "setting": "[2]", "value": 50.7, "unit": "µM"}, {"measurement": "TGI", "setting": "[3]", "value": 42.4, "unit": "µM"}, {"measurement": "TGI", "setting": "[4]", "value": 9.24, "unit": "µM"}, {"measurement": "TGI", "setting": "[5]", "value": 6.28, "unit": "µM"}, {"measurement": "TGI", "setting": "[6]", "value": 22.8, "unit": "µM"}, {"measurement": "TGI", "setting": "[7]", "value": 5.48, "unit": "µM"}, {"measurement": "TGI", "setting": "[8]", "value": 21.7, "unit": "µM"}, {"measurement": "TGI", "setting": "[9]", "value": 35.5, "unit": "µM"}, {"measurement": "TGI", "setting": "[10]", "value": 32.1, "unit": "µM"}, {"measurement": "TGI", "setting": "[11]", "value": 19.3, "unit": "µM"}, {"measurement": "TGI", "setting": "[12]", "value": 13.7, "unit": "µM"}, {"measurement": "TGI", "setting": "[13]", "value": 15.5, "unit": "µM"}, {"measurement": "TGI", "setting": "[14]", "value": 14, "unit": "µM"}, {"measurement": "TGI", "setting": "[15]", "value": 3.88, "unit": "µM"}, {"measurement": "TGI", "setting": "[16]", "value": 10.7, "unit": "µM"}, {"measurement": "TGI", "setting": "[17]", "value": 31.4, "unit": "µM"}, {"measurement": "TGI", "setting": "[18]", "value": 7.06, "unit": "µM"}, {"measurement": "TGI", "setting": "[19]", "value": 3.37, "unit": "µM"}, {"measurement": "TGI", "setting": "[20]", "value": "> 59.8", "unit": "µM"}]}, {"smiles": "CC(=O)NC1C(OC2C(CO)OC(OCC3OC(n4ccc(N)nc4=O)C(O)C3O)C(NC(C)=O)C2O)OC(CO)C(O)C1O", "note": "(stereo not given)", "values": [{"measurement": "TGI", "setting": "[1]", "value": "> 100", "unit": "µM"}, {"measurement": "TGI", "setting": "[2]", "value": "> 100", "unit": "µM"}, {"measurement": "TGI", "setting": "[3]", "value": "> 100", "unit": "µM"}, {"measurement": "TGI", "setting": "[4]", "value": "> 100", "unit": "µM"}, {"measurement": "TGI", "setting": "[5]", "value": "> 100", "unit": "µM"}, {"measurement": "TGI", "setting": "[6]", "value": "> 100", "unit": "µM"}, {"measurement": "TGI", "setting": "[7]", "value": "> 100", "unit": "µM"}, {"measurement": "TGI", "setting": "[8]", "value": "> 100", "unit": "µM"}, {"measurement": "TGI", "setting": "[9]", "value": "> 100", "unit": "µM"}, {"measurement": "TGI", "setting": "[10]", "value": "> 100", "unit": "µM"}, {"measurement": "TGI", "setting": "[11]", "value": "> 100", "unit": "µM"}, {"measurement": "TGI", "setting": "[12]", "value": "> 100", "unit": "µM"}, {"measurement": "TGI", "setting": "[13]", "value": "> 100", "unit": "µM"}, {"measurement": "TGI", "setting": "[14]", "value": "> 100", "unit": "µM"}, {"measurement": "TGI", "setting": "[15]", "value": "> 100", "unit": "µM"}, {"measurement": "TGI", "setting": "[16]", "value": "> 100", "unit": "µM"}, {"measurement": "TGI", "setting": "[17]", "value": "> 100", "unit": "µM"}, {"measurement": "TGI", "setting": "[18]", "value": "> 100", "unit": "µM"}, {"measurement": "TGI", "setting": "[19]", "value": "> 100", "unit": "µM"}, {"measurement": "TGI", "setting": "[20]", "value": "> 100", "unit": "µM"}]}, {"smiles": "CCOC(=O)c1[nH]cc(C)c1-c1c[nH]c2ccccc12", "values": [{"measurement": "TGI", "setting": "[1]", "value": "> 82.7", "unit": "µM"}, {"measurement": "TGI", "setting": "[2]", "value": 72.5, "unit": "µM"}, {"measurement": "TGI", "setting": "[3]", "value": "> 100", "unit": "µM"}, {"measurement": "TGI", "setting": "[4]", "value": "> 71.4", "unit": "µM"}, {"measurement": "TGI", "setting": "[5]", "value": "> 100", "unit": "µM"}, {"measurement": "TGI", "setting": "[6]", "value": "> 100", "unit": "µM"}, {"measurement": "TGI", "setting": "[7]", "value": "> 100", "unit": "µM"}, {"measurement": "TGI", "setting": "[8]", "value": "> 100", "unit": "µM"}, {"measurement": "TGI", "setting": "[9]", "value": "> 100", "unit": "µM"}, {"measurement": "TGI", "setting": "[10]", "value": "> 100", "unit": "µM"}, {"measurement": "TGI", "setting": "[11]", "value": "> 100", "unit": "µM"}, {"measurement": "TGI", "setting": "[12]", "value": 41.9, "unit": "µM"}, {"measurement": "TGI", "setting": "[13]", "value": "> 100", "unit": "µM"}, {"measurement": "TGI", "setting": "[14]", "value": "> 100", "unit": "µM"}, {"measurement": "TGI", "setting": "[15]", "value": "> 100", "unit": "µM"}, {"measurement": "TGI", "setting": "[16]", "value": "> 76.8", "unit": "µM"}, {"measurement": "TGI", "setting": "[17]", "value": "> 100", "unit": "µM"}, {"measurement": "TGI", "setting": "[18]", "value": "> 60.8", "unit": "µM"}, {"measurement": "TGI", "setting": "[19]", "value": "> 81.8", "unit": "µM"}, {"measurement": "TGI", "setting": "[20]", "value": "> 100", "unit": "µM"}]}, {"smiles": "CO/N=C(\\C(=O)Nc1cncs1)c1csc(N)n1", "values": [{"measurement": "TGI", "setting": "[1]", "value": "> 10", "unit": "µM"}, {"measurement": "TGI", "setting": "[2]", "value": "> 10", "unit": "µM"}, {"measurement": "TGI", "setting": "[3]", "value": "> 10", "unit": "µM"}, {"measurement": "TGI", "setting": "[4]", "value": "> 10", "unit": "µM"}, {"measurement": "TGI", "setting": "[5]", "value": "> 10", "unit": "µM"}, {"measurement": "TGI", "setting": "[6]", "value": "> 10", "unit": "µM"}, {"measurement": "TGI", "setting": "[7]", "value": "> 10", "unit": "µM"}, {"measurement": "TGI", "setting": "[8]", "value": "> 10", "unit": "µM"}, {"measurement": "TGI", "setting": "[9]", "value": "> 10", "unit": "µM"}, {"measurement": "TGI", "setting": "[10]", "value": "> 10", "unit": "µM"}, {"measurement": "TGI", "setting": "[11]", "value": "> 10", "unit": "µM"}, {"measurement": "TGI", "setting": "[12]", "value": "> 10", "unit": "µM"}, {"measurement": "TGI", "setting": "[13]", "value": "> 10", "unit": "µM"}, {"measurement": "TGI", "setting": "[14]", "value": "> 10", "unit": "µM"}, {"measurement": "TGI", "setting": "[15]", "value": "> 10", "unit": "µM"}, {"measurement": "TGI", "setting": "[16]", "value": "> 10", "unit": "µM"}, {"measurement": "TGI", "setting": "[17]", "value": "> 10", "unit": "µM"}, {"measurement": "TGI", "setting": "[18]", "value": "> 10", "unit": "µM"}, {"measurement": "TGI", "setting": "[19]", "value": "> 10", "unit": "µM"}, {"measurement": "TGI", "setting": "[20]", "value": "> 10", "unit": "µM"}]}, {"smiles": "C=C(C)[C@@H]1CCC2=C[C@H](OC2=O)[C@@]2(C)C[C@@H]2C(=O)/C=C(/C)C(=O)[C@H]1OC(C)=O", "values": [{"measurement": "TGI", "setting": "[1]", "value": "> 46.1", "unit": "µM"}, {"measurement": "TGI", "setting": "[2]", "value": "> 100", "unit": "µM"}, {"measurement": "TGI", "setting": "[3]", "value": "> 71.9", "unit": "µM"}, {"measurement": "TGI", "setting": "[4]", "value": "> 48.2", "unit": "µM"}, {"measurement": "TGI", "setting": "[5]", "value": 29.8, "unit": "µM"}, {"measurement": "TGI", "setting": "[6]", "value": "> 63.6", "unit": "µM"}, {"measurement": "TGI", "setting": "[7]", "value": "> 55.7", "unit": "µM"}, {"measurement": "TGI", "setting": "[8]", "value": "> 100", "unit": "µM"}, {"measurement": "TGI", "setting": "[9]", "value": 43.9, "unit": "µM"}, {"measurement": "TGI", "setting": "[10]", "value": 57.8, "unit": "µM"}, {"measurement": "TGI", "setting": "[11]", "value": "> 65.2", "unit": "µM"}, {"measurement": "TGI", "setting": "[12]", "value": 23.5, "unit": "µM"}, {"measurement": "TGI", "setting": "[13]", "value": 81.4, "unit": "µM"}, {"measurement": "TGI", "setting": "[14]", "value": "> 58.5", "unit": "µM"}, {"measurement": "TGI", "setting": "[15]", "value": 26.1, "unit": "µM"}, {"measurement": "TGI", "setting": "[16]", "value": "> 50.8", "unit": "µM"}, {"measurement": "TGI", "setting": "[17]", "value": 97.6, "unit": "µM"}, {"measurement": "TGI", "setting": "[18]", "value": "> 37.6", "unit": "µM"}, {"measurement": "TGI", "setting": "[19]", "value": 17.1, "unit": "µM"}, {"measurement": "TGI", "setting": "[20]", "value": "> 84.7", "unit": "µM"}]}]}
